In patent US20250000869A1, “TOPICAL COMPOSITIONS OF 2-PHENYL-3, 4-DIHYDROPYRROLO [2, L-F] [1, 2, 4] TRIAZINONE DERIVATIVES AND USES THEREOF” (TOPADUR PHARMA AG, priority 2021, published 2025):

Legend:
[1] = Plasma concentrations after topical, on wound administration (satellite study, LC-MS/MS); format: in vivo, C57BL/6J mice
Description: In order to address the systemic exposure following topical, on wound administration of Compound 1, in a satellite study, plasma concentrations of Compound 1 was measured. To this end, eight male C57BL/6J mice (12 weeks of age, body weight 26.8±0.4 g (Mean±SD)) underwent surgery for generation of one full thickness, excisional, cutaneous wounds, in an identical procedure as described above. The study was performed in C57BL/6J mice due to limited availability of uPAR−/− mice. As described before, Compound 1 (in form of Topical Composition A2) was added in a dose volume of 25 μl to the wounds as a single dose. The dose related to body weight was approximately 0.565 μg/kg (from a total of 25 μl of 1 μM Compound 1 per mouse). Peripheral venous blood was sampled from the tail tip (or by cardiac puncture for the final sampling) in four mice at time points (min) 1, 5, 15, 30, 60 post administration of Compound 1 and in another four mice at time points (h) 1, 2, 4, 6, 24 post administration of Compound 1. Plasma was generated and Compound 1 measured by LC-MS/MS. The LLOQ for Compound 1 was at 800 pg/ml corresponding to 1.32 nM. […] Considering the plasma protein binding of Compound 1 in mice with unbound fractions (fu) of 0.08% for Compound 1 the unbound plasma concentrations should have been <[…] for Compound 1, corresponding to <[…] for Compound 1 when extrapolated to administration to two wounds per mice as this was done in the main efficacy study, under the assumption of dose linearity.

[2] = test system: rat aortic rings; assay: Relaxation of rat aortic rings; details: earlier effected measurements
[3] = Plasma protein binding; format: in vitro ADME; details: mouse, mice, read-out: unbound fraction (fu), plasma protein binding
[4] = molecular target: PDE5 (Homo sapiens, UniProt O76074); assay: IC50 of Compound 1 (earlier effected measurements); format: biochemical
[5] = Solubility screening of Compound 1 in various solvents/solvent systems; format: physicochemical; details: read-out: Determined Solubility
Text: A solubility screening of Compound 1 was effected. […] In general, three potential approaches where covered: i) polar organic co-solvents, ii) solubilization by surfactants and iii) oils which may, in particular, serve as a basis of an emulsion gel. A phosphate buffer of pH 6.5 with low molarity was used as this salt and pH is suitable for application on wounds. It is of note that the resulting pH of the screened systems is about 7.3.

[6] = Solubility of Compound 1 in solvent systems comprising PEG400; format: physicochemical; details: room temperature, read-out: Determined Solubility
Text: A solubility study of Compound 1 in solvent systems comprising PEG400 in various concentrations was effected.

[7] = test system: C57Bl/6J mice; assay: Ulcer core perfusion of full thickness excisional cutaneous wounds by LSCI/LASCA; format: in vivo; details: single dose 25 μl per wound, almost all times of measurements
Description: Effects of a single dose of Topical Composition A2, Topical Composition A4, and Vehicle Composition A, when administered on the perfusion of the ulcer core of full thickness excisional cutaneous wounds in C57B1/6J mice was investigated. Thus, Topical Compositions A2 and A4 were applied in a dose volume of 25 μl per wound. Each individual mouse had surgery for two wounds located symmetrical to the dorsal midline using 8 mm diameter punch biopsy devices.
Topical Compositions A2 and A4 or Vehicle Composition A were randomly administered to one or the other wound under a blinded protocol. This procedure enabled an intra-individual comparison between Compound 1 and its composition vehicle. Perfusion of the ulcer core as well as of the periulcer region was separately measured by Laser Speckle Contrast Imaging (LSCI)/Laser Speckle Contrast Analysis (LASCA) using a Perimed device. LASCA wound perfusion measurements of digital ulcers in SSc were previously shown to correlate with time to healing (Barsotti S et al Clin Rheumatol. (2020) 39(1):69-75).
In detail, a single application of Topical Compositions A2 and A4 or Vehicle Composition A, each at a volume of 25 μl per wound was randomly administered either to the right or left of two full thickness cutaneous wounds per mouse generated by 8 mm punch biopsies and symmetrically to the dorsal midline, at 24 h after surgery. […]

unbound plasma concentration extrapolated to two wounds per mice ([1]; assumption of dose linearity): < 2120 nM | unbound plasma concentration ([1]; calculated from LLOQ and fu, one wound per mouse): < 1060 nM | plasma concentration of Compound 1 ([1]; single on wound dose 25 μl Topical Composition A2 (approx. 0.565 μg/kg), 1 min to 24 h, all time points and mice, LLOQ 800 pg/ml): < 1.32 nM | fraction unbound [3]: 0.0008 | IC50 [4]: 1.18 nM | solubility ([5]; 1% poloxamer 407 in phosphate buffer, pH 6.5, aqueous with cosolvent or surfactant or cyclodextrin, 1% poloxamer 407 in PB, PB = Phosphate buffer 10 mmol/L pH 6.5): 270 µg/mL | solubility ([5]; 1% polysorbate 80 in phosphate buffer, pH 6.5, aqueous with cosolvent or surfactant or cyclodextrin, 1% polysorbate 80 in PB, PB = Phosphate buffer 10 mmol/L pH 6.5): 77 µg/mL | solubility ([5]; 3% polysorbate 80 in phosphate buffer, pH 6.5, aqueous with cosolvent or surfactant or cyclodextrin, 3% polysorbate 80 in PB, PB = Phosphate buffer 10 mmol/L pH 6.5): 139 µg/mL | solubility ([5]; 8% polysorbate 80 in phosphate buffer + 3% benzyl alcohol, pH 6.5, aqueous with cosolvent or surfactant or cyclodextrin, 8% polysorbate 80 in PB + 3% benzyl alcohol, PB = Phosphate buffer 10 mmol/L pH 6.5): 56 µg/mL | solubility ([5]; 8% polysorbate 80 in phosphate buffer + 10% MCT, pH 6.5, aqueous with cosolvent or surfactant or cyclodextrin, 8% polysorbate 80 in PB + 10% MCT, PB = Phosphate buffer 10 mmol/L pH 6.5): 37 µg/mL | solubility ([5]; 8% polysorbate 80 in phosphate buffer + 10% ethanol, pH 6.5, aqueous with cosolvent or surfactant or cyclodextrin, 8% polysorbate 80 in PB + 10% ethanol, PB = Phosphate buffer 10 mmol/L pH 6.5): 43 µg/mL | solubility ([5]; 8% polysorbate 80 in phosphate buffer + 10% poloxamer 407, pH 6.5, aqueous with cosolvent or surfactant or cyclodextrin, 8% polysorbate 80 in PB + 10% poloxamer 407, PB = Phosphate buffer 10 mmol/L pH 6.5): 63 µg/mL | solubility ([5]; 8% polysorbate 80 in phosphate buffer, pH 6.5, aqueous with cosolvent or surfactant or cyclodextrin, 8% polysorbate 80 in PB, PB = Phosphate buffer 10 mmol/L pH 6.5): 67 µg/mL | solubility ([5]; 10% poloxamer 407 in phosphate buffer, pH 6.5, aqueous with cosolvent or surfactant or cyclodextrin, 10% poloxamer 407 in PB, PB = Phosphate buffer 10 mmol/L pH 6.5): 23.2 µg/mL | solubility ([5]; PEG 400/phosphate buffer (30:70, vol:vol), pH 6.5, aqueous with cosolvent or surfactant or cyclodextrin, PEG 400/PB (30:70, vol:vol), PB = Phosphate buffer 10 mmol/L pH 6.5): 1 µg/mL | solubility ([5]; PEG 400/phosphate buffer (70:30, vol:vol), pH 6.5, aqueous with cosolvent or surfactant or cyclodextrin, PEG 400/PB (70:30, vol:vol), PB = Phosphate buffer 10 mmol/L pH 6.5): 110 µg/mL | solubility ([5]; isopropyl myristate (IPM), oil or lipid, Isopropyl myristate (IPM)): 93 µg/mL | solubility ([5]; medium chain triglycerides (MCT), oil or lipid, Medium chain triglycerides (MCT)): 282 µg/mL | solubility ([5]; octyldodecanol (Kollicream OD), oil or lipid, Octyldodecanol (Kollicream OD)): 28 µg/mL | solubility ([5]; pH 6.5, aqueous with cosolvent or surfactant or cyclodextrin, PEG 400/PB (30:70, vol:vol) + 3% benzyl alcohol, PB = Phosphate buffer 10 mmol/L pH 6.5): 8 µg/mL | solubility ([5]; pH 6.5, aqueous with cosolvent or surfactant or cyclodextrin, PEG 400/PB (30:70, vol:vol) + 3% polysorbate 80, PB = Phosphate buffer 10 mmol/L pH 6.5): 20 µg/mL | solubility ([5]; pH 6.5, aqueous with cosolvent or surfactant or cyclodextrin, PEG 400/PB (30:70, vol:vol) + 10% poloxamer 407, PB = Phosphate buffer 10 mmol/L pH 6.5): 54 µg/mL | solubility ([5]; polyethylene glycol PEG 400, organic solvent or mixture, Polyethylene glycol PEG 400): 10500 µg/mL | solubility ([6]; aqueous with cosolvent or surfactant or cyclodextrin, PEG400:benzyl alcohol:phosphate buffer (44:1:55) vol:vol, Phosphate buffer 12 mmol/L pH 6.7): 0.861 µg/mL | solubility ([6]; aqueous with cosolvent or surfactant or cyclodextrin, PEG400:benzyl alcohol:phosphate buffer (49:1:50) vol:vol, Phosphate buffer 12 mmol/L pH 6.7): 2.18 µg/mL | solubility ([6]; aqueous with cosolvent or surfactant or cyclodextrin, PEG400:benzyl alcohol:phosphate buffer (54:1:45) vol:vol, Phosphate buffer 12 mmol/L pH 6.7): 5 µg/mL | solubility ([6]; aqueous with cosolvent or surfactant or cyclodextrin, PEG400:benzyl alcohol:phosphate buffer (59:1:40) vol:vol, Phosphate buffer 12 mmol/L pH 6.7): 12.8 µg/mL | solubility ([6]; aqueous with cosolvent or surfactant or cyclodextrin, PEG400:benzyl alcohol:phosphate buffer (64:1:35) vol:vol, Phosphate buffer 12 mmol/L pH 6.7): 37 µg/mL | solubility ([6]; aqueous with cosolvent or surfactant or cyclodextrin, PEG400:benzyl alcohol:phosphate buffer (69:1:30) vol:vol, Phosphate buffer 12 mmol/L pH 6.7): 112 µg/mL | solubility ([6]; aqueous with cosolvent or surfactant or cyclodextrin, PEG400:benzyl alcohol:phosphate buffer (79:1:20) vol:vol, Phosphate buffer 12 mmol/L pH 6.7): 882 µg/mL | solubility ([6]; aqueous with cosolvent or surfactant or cyclodextrin, PEG400:benzyl alcohol:phosphate buffer (89:1:10) vol:vol, Phosphate buffer 12 mmol/L pH 6.7): 1770 µg/mL | solubility ([6]; organic solvent or mixture, PEG400:benzyl alcohol (99:1) vol:vol): 12700 µg/mL
SMILES: CCCOc1ccc(S(=O)(=O)N2CCC(CCO[N+](=O)[O-])CC2)cc1-c1nn2c(CCC)c(/C=N/O)c(C)c2c(=O)[nH]1 [Compound 1, 2-[1-(3-{6-[(1E)-(hydroxyimino)methyl]-5-methyl-4-oxo-7-propyl-3H,4H-pyrrolo[2,1-f][1,2,4]triazin-2-yl}-4-propoxybenzenesulfonyl)piperidin-4-yl]ethyl nitrate]
IC40 for relaxation of rat aortic rings [2]: 8000 nM | ulcer core perfusion compared to Vehicle Composition A [7]: increases perfusion of ulcer core
